The source of these data is US20100137313A1 (ASTRAZENECA AB, priority 2008, published 2010).

Sequence of S. pneumoniae Topoisomerase IV ATPase (ParE) (Q59961 whole entry): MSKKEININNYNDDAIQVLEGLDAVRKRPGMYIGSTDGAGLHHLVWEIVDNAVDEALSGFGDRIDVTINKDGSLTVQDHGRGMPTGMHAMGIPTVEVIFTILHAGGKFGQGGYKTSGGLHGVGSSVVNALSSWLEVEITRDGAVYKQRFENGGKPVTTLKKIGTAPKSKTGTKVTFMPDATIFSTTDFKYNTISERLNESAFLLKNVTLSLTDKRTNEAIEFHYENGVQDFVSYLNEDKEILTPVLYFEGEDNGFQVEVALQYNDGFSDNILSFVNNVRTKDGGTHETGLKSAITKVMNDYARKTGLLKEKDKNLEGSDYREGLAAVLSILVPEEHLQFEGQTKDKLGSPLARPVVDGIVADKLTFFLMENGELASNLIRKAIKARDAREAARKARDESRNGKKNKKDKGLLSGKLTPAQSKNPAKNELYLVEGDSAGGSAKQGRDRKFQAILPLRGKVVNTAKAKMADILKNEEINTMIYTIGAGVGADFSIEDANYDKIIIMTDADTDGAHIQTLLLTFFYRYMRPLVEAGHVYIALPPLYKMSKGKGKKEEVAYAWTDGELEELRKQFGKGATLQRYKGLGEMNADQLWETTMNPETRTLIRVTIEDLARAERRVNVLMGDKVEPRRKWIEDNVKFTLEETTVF

The target in this experiment is S. pneumoniae Topoisomerase IV ATPase (ParE) (Streptococcus pneumoniae serotype 4, UniProt Q59961). The experiment is described as follows: S. pneumoniae Topoisomerase IV ATPase inhibition. In kind it is biochemical. Conditions: values marked * are an average of two or more data points, read-out: % Inh (13 μM) of S. pneumoniae Topoisomerase IV ATPase. The method, boiled down:
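S. pneumoniae ParE (1.25 nM) ATPase with 160 μM ATP and 5 μg/ml sheared DNA in pH 8.0 Tris, Mg2+, DTT, Brij-35; phosphate detected by malachite green/molybdate at 650 nm. Normalised to 2% DMSO (0%) and 20 μM EDTA (100%); IC50 from 10 concentrations.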
Regarding `COc1ncc(-c2cnc(Nc3ccc(F)c(Cl)c3)nc2NCCc2cccnc2)cn1` [Example 460, N^2-(3-chloro-4-fluorophenyl)-2′-methoxy-N^4-[2-(pyridin-3-yl)ethyl]-5,5′-bipyrimidine-2,4-diamine], the inhibition at 13 µM turned out to be 100%.

Regarding `COc1cc(F)cc(Nc2ncc(-c3cnc(OC)c(C(=O)O)c3)c(-n3nc(C(F)(F)F)cc3C)n2)c1` [Example 915, 5-(2-(3-fluoro-5-methoxyphenylamino)-4-(5-methyl-3-(trifluoromethyl)-1H-pyrazol-1-yl)pyrimidin-5-yl)-2-methoxynicotinic acid], the inhibition at 13 µM came to 100%.

Take `O=C(O)CNc1nc(Nc2ccc(F)c(Cl)c2)ncc1-c1cncc(C(=O)O)c1` [Example 238, 5-[4-(carboxymethylamino)-2-[(3-chloro-4-fluorophenyl)amino]-pyrimidin-5-yl]pyridine-3-carboxylic acid]: the inhibition at 13 µM was determined as 72.6%.

For the molecule `CCOC(=O)/C=C/c1cccc(-c2cnc(Nc3ccc(F)c(Cl)c3)nc2N2CC(C)OC(C)C2)c1` (stereo not shown) [Example 163, (E)-ethyl 3-(3-(2-(3-chloro-4-fluorophenylamino)-4-(2,6-dimethylmorpholino)pyrimidin-5-yl)phenyl)acrylate], the inhibition at 13 µM turned out to be 55%.

Consider `COc1cc(C)cc(Nc2ncc(-c3cc(C(=O)NS(C)(=O)=O)c(=O)n(C)c3)c(-n3nc(C(F)(F)F)cc3C)n2)c1` [Example 1174, 5-{2-[(3-methoxy-5-methylphenyl)amino]-4-[5-methyl-3-(trifluoromethyl)-1H-pyrazol-1-yl]pyrimidin-5-yl}-1-methyl-N-(methylsulfonyl)-2-oxo-1,2-dihydropyridine-3-carboxamide], for which the inhibition at 13 µM was 100%.

As for `COc1nc(OC)c(-c2cnc(Nc3ccc(F)c(Cl)c3)nc2-n2nc(C(F)(F)F)cc2C)cc1C(=O)O` [Example 1131, 5-(2-(3-chloro-4-fluorophenylamino)-4-(5-methyl-3-(trifluoromethyl)-1H-pyrazol-1-yl)pyrimidin-5-yl)-2,6-dimethoxynicotinic acid], the inhibition at 13 µM stood at 100%.

`NC(=O)CCNc1nc(Nc2ccc(F)c(Cl)c2)ncc1-c1cncnc1` [Example 42, 3-[[2-[(3-chloro-4-fluorophenyl)amino]-5-pyrimidin-5-ylpyrimidin-4-yl]amino]propanamide]: the inhibition at 13 µM was 77.5%.

Regarding `O=C(O)/C=C/c1cccc(-c2cnc(Nc3ccc(F)c(Cl)c3)nc2NCCCc2nc3ccccc3[nH]2)c1` [Example 289, (E)-3-(3-(4-(3-(1H-benzo[d]imidazol-2-yl)propylamino)-2-(3-chloro-4-fluorophenylamino)-pyrimidin-5-yl)phenyl)acrylic acid], the inhibition at 13 µM was determined as 88.2%.

As to `COc1cc(Nc2ncc(-c3cncc(C(=O)O)c3)c(-n3nc(C(F)F)cc3C)n2)cc(OC)c1` [Intermediate 1126, 5-(4-(3-(difluoromethyl)-5-methyl-1H-pyrazol-1-yl)-2-(3,5-dimethoxyphenylamino)pyrimidin-5-yl)nicotinic acid], the inhibition at 13 µM was 100%.

Turning to `COCC(COC)Nc1nc(Nc2ccc(F)c(Cl)c2)ncc1-c1cccc(/C=C/C(=O)O)c1` [Example 299], the inhibition at 13 µM was 98.7%.

For `O=C(O)c1cccc(-c2cnc(Nc3ccc(F)c(Cl)c3)nc2-n2ccc(C(F)(F)F)n2)n1` [Example 877, 6-(2-(3-chloro-4-fluorophenylamino)-4-(3-(trifluoromethyl)-1H-pyrazol-1-yl)pyrimidin-5-yl)picolinic acid], the inhibition at 13 µM worked out at 100%.

Turning to `CC(Oc1ncc(-c2cnc(Nc3ccc(F)c(Cl)c3)nc2-n2ccc(C(F)(F)F)n2)cc1C(=O)O)c1ccncc1` (stereo not shown) [Example 793, 5-{2-[(3-chloro-4-fluorophenyl)amino]-4-[3-(trifluoromethyl)-1H-pyrazol-1-yl]pyrimidin-5-yl}-2-[1-(pyridin-4-yl)ethoxy]pyridine-3-carboxylic acid], the inhibition at 13 µM worked out at 100%.

With `COc1cc(Nc2ncc(-c3cnc(OC)c(C(=O)NS(=O)(=O)c4sc(NC(C)=O)nc4C)c3)c(-n3nc(C(F)(F)F)cc3C)n2)cc(OC)c1` [Example 834, N-{[2-(acetylamino)-4-methyl-1,3-thiazol-5-yl]sulfonyl}-5-{2-[(3,5-dimethoxyphenyl)amino]-4-[5-methyl-3-(trifluoromethyl)-1H-pyrazol-1-yl]pyrimidin-5-yl}-2-methoxypyridine-3-carboxamide], the inhibition at 13 µM turned out to be 98%.

Take `Fc1ccc(Nc2ncc(-c3cncnc3)c(NCc3ccco3)n2)cc1Cl` [Example 53, N^2-(3-chloro-4-fluorophenyl)-N^4-(furan-2-ylmethyl)-5-pyrimidin-5-ylpyrimidine-2,4-diamine]: the inhibition at 13 µM turned out to be 70.5%.

Consider `CCOC(=O)/C=C/c1cccc(-c2cnc(Nc3ccc(F)c(Cl)c3)nc2-n2cnc(Cl)c2Cl)c1` [Example 161, ethyl (2E)-3-(3-{2-[(3-chloro-4-fluorophenyl)amino]-4-(4,5-dichloro-1H-imidazol-1-yl)pyrimidin-5-yl}phenyl)prop-2-enoate], for which the inhibition at 13 µM stood at 74.8%.

For `COc1cc(Nc2ncc(-c3cnc(N(C)C)c(C(=O)O)c3)c(-n3ccc(C(F)(F)F)n3)n2)cc(OC)c1` [Example 587, 5-(2-(3,5-dimethoxyphenylamino)-4-(3-(trifluoromethyl)-1H-pyrazol-1-yl)pyrimidin-5-yl)-2-(dimethylamino)nicotinic acid], the inhibition at 13 µM was determined as 100%.

With `COc1c(C(=O)O)cccc1-c1cnc(Nc2ccc(F)c(Cl)c2)nc1-n1ccc(C(F)(F)F)n1` [Example 1139, 3-(2-(3-chloro-4-fluorophenylamino)-4-(3-(trifluoromethyl)-1H-pyrazol-1-yl)pyrimidin-5-yl)-2-methoxybenzoic acid], the inhibition at 13 µM turned out to be 96%.

In the case of `O=C(O)c1cncc(-c2cnc(Nc3ccc(F)c(Cl)c3)nc2-n2cc(-c3ccncc3)cn2)c1` [Example 308, 5-{2-[(3-chloro-4-fluorophenyl)amino]-4-[4-(pyridin-4-yl)-1H-pyrazol-1-yl]pyrimidin-5-yl}pyridine-3-carboxylic acid], the inhibition at 13 µM was determined as 101%.

Consider `Cc1cc(C(F)(F)F)nn1-c1nc(Nc2ccc(F)c(Cl)c2)ncc1-c1cnc(OC(C)c2ccncc2)c(C(=O)O)c1` (stereo not shown) [Example 791, 5-{2-[(3-chloro-4-fluorophenyl)amino]-4-[5-methyl-3-(trifluoromethyl)-1H-pyrazol-1-yl]pyrimidin-5-yl}-2-[1-(pyridin-4-yl)ethoxy]pyridine-3-carboxylic acid], for which the inhibition at 13 µM is 97%.

On to `Cc1cc(C(F)(F)F)nn1-c1nc(Nc2ccc(F)c(Cl)c2)ncc1-c1cncc(C(N)=O)c1` [Example 924, 5-(2-(3-chloro-4-fluorophenylamino)-4-(5-methyl-3-(trifluoromethyl)-1H-pyrazol-1-yl)pyrimidin-5-yl)nicotinamide], for which the inhibition at 13 µM turned out to be 97%.

Consider `COc1cc(C#N)cc(Nc2ncc(-c3cncc(C(=O)O)c3)c(-n3ccc(C(F)(F)F)n3)n2)c1` [Example 732, 5-{2-[(3-cyano-5-methoxyphenyl)amino]-4-[3-(trifluoromethyl)-1H-pyrazol-1-yl]pyrimidin-5-yl}pyridine-3-carboxylic acid], for which the inhibition at 13 µM turned out to be 100%.

Take `CCOC(=O)c1sc(-c2cnc(Nc3ccc(F)c(Cl)c3)nc2NCCCOC)nc1-c1ccccc1` [Example 506, ethyl 2-{2-[(3-chloro-4-fluorophenyl)amino]-4-[(3-methoxypropyl)amino]pyrimidin-5-yl}-4-phenyl-1,3-thiazole-5-carboxylate]: the inhibition at 13 µM came to 33%.

On to `O=C(O)CS(=O)(=O)c1cccc(-c2cnc(Nc3ccc(F)c(Cl)c3)nc2-n2ccc(C(F)(F)F)n2)c1` [Example 1099, 2-(3-(2-(3-chloro-4-fluorophenylamino)-4-(3-(trifluoromethyl)-1H-pyrazol-1-yl)pyrimidin-5yl)phenylsulfonyl)acetic acid], for which the inhibition at 13 µM worked out at 100%.

As to `Cc1cc(C(F)(F)F)nn1-c1nc(Nc2ccc(F)c(Cl)c2)ncc1-c1cc(C(=O)O)c(=O)n(CCO)c1` [Example 1084, 5-(2-(3-Chloro-4-fluorophenylamino)-4-(5-methyl-3-(trifluoromethyl)-1H-pyrazol-1-yl)pyrimidin-5-yl)-1-(2-hydroxyethyl)-2-oxo-1,2-dihydropyridine-3-carboxylic acid], the inhibition at 13 µM was 100%.

With `Cc1cc(C(F)(F)F)nn1-c1nc(Nc2ccc(F)c(Cl)c2)ncc1-c1cnc(OC2CCN(C)C2)c(C(=O)O)c1` (stereo not shown) [Example 787, 5-{2-[(3-chloro-4-fluorophenyl)amino]-4-[5-methyl-3-(trifluoromethyl)-1H-pyrazol-1-yl]pyrimidin-5-yl}-2-[(1-methylpyrrolidin-3-yl)oxy]pyridine-3-carboxylic acid], the inhibition at 13 µM turned out to be 97%.

Turning to `COc1cc(Nc2ncc(-c3cnc(OC)nc3)c(NCCc3ccncc3)n2)cc(C(F)(F)F)c1` [Example 356, 2′-methoxy-N^2-(3-methoxy-5-(trifluoromethyl)phenyl)-N^4-(2-(pyridin-4-yl)ethyl)-5,5′-bipyrimidine-2,4-diamine], the inhibition at 13 µM stood at 86.5%.

Turning to `N#Cc1cc(Cl)cc(Nc2ncc(-c3cccc(/C=C/C(=O)O)c3)c(N3CCOCC3)n2)c1` [Example 408, (E)-3-{3-[2-(3-Chloro-5-cyano-phenylamino)-4-morpholin-4-yl-pyrimidin-5-yl]-phenyl}-acrylic acid], the inhibition at 13 µM was determined as 100%.

Regarding `COc1cc(Nc2ncc(-c3cnc(OCCCS(C)(=O)=O)c(C(=O)NS(=O)(=O)C(F)(F)F)c3)c(-n3ccc(C(F)(F)F)n3)n2)cc(OC)c1` [Example 972, 5-(2-(3,5-dimethoxyphenylamino)-4-(3-(trifluoromethyl)-1H-pyrazol-1-yl)pyrimidin-5-yl)-2-(3-(methylsulfonyl)propoxy)-N-(trifluoromethylsulfonyl)nicotinamide], the inhibition at 13 µM was found to be 100%.
